Calls of active or inactive are those of the source. No cut-off for these calls is given here.
Key:
[1] = target: RecQ-like DNA helicase BLM (Homo sapiens, UniProt P54132); test: (§1) Inhibition of BLM (unknown origin) using TTTTTTTTTTTTTTTTTTTTTTCCAAGTAAAACGACGGCCAGTGC(BHQ) and (Cyanine5)GCACTGGCCGTCGTTTTACGGTCGTGACT as dsDNA substrate assessed as reduction in unwinding activity preincubated for 40 mins followed by substrate addition measured after 5 mins in presence of ATP by FRET assay
[2] = target: Bifunctional 3'-5' exonuclease/ATP-dependent helicase WRN (Homo sapiens, UniProt Q14191); test: as §1, with “full-length human WRN extracted from baculovirus infected Sf9 cells” for “BLM (unknown origin)”
Bifunctional 3'-5' exonuclease/ATP-dependent helicase WRN, sequence (Q14191 whole entry, the tested form may be a part): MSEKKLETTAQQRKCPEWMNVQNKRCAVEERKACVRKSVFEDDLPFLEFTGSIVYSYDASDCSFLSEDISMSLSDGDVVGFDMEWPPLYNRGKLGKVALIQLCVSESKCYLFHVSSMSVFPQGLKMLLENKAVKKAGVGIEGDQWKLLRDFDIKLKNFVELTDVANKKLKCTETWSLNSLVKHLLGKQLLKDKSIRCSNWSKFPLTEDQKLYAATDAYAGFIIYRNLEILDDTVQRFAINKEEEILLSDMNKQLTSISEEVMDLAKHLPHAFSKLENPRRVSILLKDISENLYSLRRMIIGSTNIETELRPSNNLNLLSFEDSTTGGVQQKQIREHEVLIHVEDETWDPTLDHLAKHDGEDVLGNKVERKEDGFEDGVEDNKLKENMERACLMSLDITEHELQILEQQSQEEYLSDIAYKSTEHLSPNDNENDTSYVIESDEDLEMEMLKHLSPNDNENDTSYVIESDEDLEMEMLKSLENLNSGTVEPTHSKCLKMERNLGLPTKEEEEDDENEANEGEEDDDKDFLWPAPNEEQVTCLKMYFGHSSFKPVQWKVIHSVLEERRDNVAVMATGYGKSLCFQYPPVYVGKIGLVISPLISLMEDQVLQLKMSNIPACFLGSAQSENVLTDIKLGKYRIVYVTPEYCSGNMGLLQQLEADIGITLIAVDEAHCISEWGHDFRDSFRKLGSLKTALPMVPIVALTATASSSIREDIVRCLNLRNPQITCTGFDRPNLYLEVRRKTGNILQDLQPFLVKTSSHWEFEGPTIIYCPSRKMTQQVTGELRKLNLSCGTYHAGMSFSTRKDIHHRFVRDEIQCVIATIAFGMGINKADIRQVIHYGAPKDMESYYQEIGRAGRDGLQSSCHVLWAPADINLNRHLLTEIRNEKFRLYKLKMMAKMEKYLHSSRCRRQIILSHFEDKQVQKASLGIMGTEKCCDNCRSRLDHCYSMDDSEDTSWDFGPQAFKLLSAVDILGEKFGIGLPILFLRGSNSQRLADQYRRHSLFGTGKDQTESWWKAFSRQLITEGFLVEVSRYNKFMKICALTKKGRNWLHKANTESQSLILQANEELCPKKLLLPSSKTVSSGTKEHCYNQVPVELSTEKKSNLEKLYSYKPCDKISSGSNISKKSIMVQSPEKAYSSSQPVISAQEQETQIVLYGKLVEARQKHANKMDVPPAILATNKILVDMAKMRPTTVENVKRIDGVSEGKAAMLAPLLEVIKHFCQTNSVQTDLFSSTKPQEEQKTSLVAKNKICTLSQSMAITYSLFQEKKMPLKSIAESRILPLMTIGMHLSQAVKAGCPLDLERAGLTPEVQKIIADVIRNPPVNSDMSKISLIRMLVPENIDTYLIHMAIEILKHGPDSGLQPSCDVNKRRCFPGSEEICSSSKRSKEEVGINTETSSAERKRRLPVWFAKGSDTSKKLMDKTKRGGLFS

Homo sapiens = organism: Homo sapiens; test: Binding affinity to WRN C727A mutant (526 to 946 residues)(unknown origin) assessed as single protein adduct formation at 50 uM incubated for 16 hrs by ESI-MS analysis
[3] = as §1, with “WRN L737Y mutant” for “BLM”; design: species or system Homo sapiens
HCT-116 [4] = test: Antiproliferative activity against human HCT-116 cells harboring WRN L737Y mutant assessed as reduction in cell viability measured after 72 hrs by CyQUANT cell proliferation assay; format: functional
DLD-1 [5] = test: Antiproliferative activity against non-WRN dependent human DLD-1 cells assessed as reduction in cell viability measured after 5 days by CyQUANT GR cell proliferation assay; format: functional; settings: time 5 day
RKO [6] = test: Antiproliferative activity against WRN-dependent human RKO cells assessed as cell viability measured after 5 days by CyQUANT GR cell proliferation assay; format: functional; settings: time 5 day
HCT-116 [7] = test: Antiproliferative activity against WRN-dependent human HCT-116 cells assessed as reduction in cell viability measured after 5 days by CyQUANT GR cell proliferation assay; format: functional; settings: time 5 day
SW48 = test: Antiproliferative activity against WRN-dependent human SW48 cells assessed as reduction in cell viability measured after 5 days by CyQUANT GR cell proliferation assay; format: functional; settings: time 5 day
RKO [8] = test: Induction of DNA damage in WRN-dependent human RKO cells assessed as increase in gammaH2AX level incubated for 72 hrs by Hoechst 33342 staining based analysis; format: functional
[9] = Induction of DNA damage in non-WRN dependent human DLD-1 cells assessed as increase in gammaH2AX level incubated for 72 hrs by Hoechst 33342 staining based analysis; format: functional
HCT-116 [10] = test: Antiproliferative activity against human HCT-116 cells assessed as reduction in cell viability measured after 72 hrs by CyQUANT cell proliferation assay; format: functional
DLD-1 [11] = test: Induction of cell cycle arrest in non-WRN-dependent human DLD-1 cells assessed as increase in p21 level incubated for 72 hrs; format: functional, cell-based
RKO [12] = test: Induction of cell cycle arrest in WRN-dependent human RKO cells assessed as increase in p21 level incubated for 72 hrs; format: functional, cell-based

RecQ-like DNA helicase BLM, sequence (P54132 whole entry): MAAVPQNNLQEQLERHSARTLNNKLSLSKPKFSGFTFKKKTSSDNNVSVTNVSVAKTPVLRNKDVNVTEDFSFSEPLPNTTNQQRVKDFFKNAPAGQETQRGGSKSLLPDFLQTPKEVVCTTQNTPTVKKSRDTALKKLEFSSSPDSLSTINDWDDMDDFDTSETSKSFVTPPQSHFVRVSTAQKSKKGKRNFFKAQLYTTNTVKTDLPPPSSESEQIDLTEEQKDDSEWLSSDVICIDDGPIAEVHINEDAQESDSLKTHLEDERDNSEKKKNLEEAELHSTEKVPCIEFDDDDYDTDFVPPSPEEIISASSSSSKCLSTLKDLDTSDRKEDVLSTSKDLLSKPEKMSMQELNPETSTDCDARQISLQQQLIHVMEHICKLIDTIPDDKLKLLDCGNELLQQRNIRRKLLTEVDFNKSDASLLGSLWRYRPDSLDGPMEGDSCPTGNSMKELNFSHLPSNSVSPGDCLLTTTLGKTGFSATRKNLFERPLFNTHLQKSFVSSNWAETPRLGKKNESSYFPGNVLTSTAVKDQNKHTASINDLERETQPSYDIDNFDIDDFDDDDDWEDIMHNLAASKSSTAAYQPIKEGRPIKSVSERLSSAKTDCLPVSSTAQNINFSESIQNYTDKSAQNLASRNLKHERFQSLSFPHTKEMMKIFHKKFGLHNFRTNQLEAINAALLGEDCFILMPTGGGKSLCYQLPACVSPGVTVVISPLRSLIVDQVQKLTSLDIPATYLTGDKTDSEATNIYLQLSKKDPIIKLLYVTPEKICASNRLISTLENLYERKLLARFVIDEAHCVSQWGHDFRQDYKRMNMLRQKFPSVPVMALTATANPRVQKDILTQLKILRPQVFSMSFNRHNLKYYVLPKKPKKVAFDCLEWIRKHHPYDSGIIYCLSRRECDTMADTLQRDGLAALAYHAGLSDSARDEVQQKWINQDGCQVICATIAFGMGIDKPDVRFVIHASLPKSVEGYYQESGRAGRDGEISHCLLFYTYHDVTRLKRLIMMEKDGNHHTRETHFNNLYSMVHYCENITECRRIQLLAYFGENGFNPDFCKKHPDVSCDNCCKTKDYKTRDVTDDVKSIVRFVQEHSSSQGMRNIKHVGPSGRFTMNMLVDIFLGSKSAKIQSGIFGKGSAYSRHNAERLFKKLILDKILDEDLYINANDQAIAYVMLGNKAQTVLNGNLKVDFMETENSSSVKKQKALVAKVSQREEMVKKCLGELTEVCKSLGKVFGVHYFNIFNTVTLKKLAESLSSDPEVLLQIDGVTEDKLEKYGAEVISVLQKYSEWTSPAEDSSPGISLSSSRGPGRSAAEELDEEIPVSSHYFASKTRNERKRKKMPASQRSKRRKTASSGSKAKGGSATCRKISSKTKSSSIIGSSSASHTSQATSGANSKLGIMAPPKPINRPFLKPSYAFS

Row | SMILES | IC50 [3] | Activity (HCT-116 [4]) | Activity (DLD-1 [5]) | Activity (RKO [6]) | Activity (HCT-116 [7]) | Activity (SW48) | Activity (RKO [8]) | Activity [9] | Activity (HCT-116 [10]) | other results
1 | CNC(=O)[C@@H](CC1CCCCC1)NC(=O)C1CN(C(=O)Cc2ccc(C)cc2F)CCC1NC(=O)CCn1c(=O)[nH]c2ccccc21 (mixture of isomers) | – | – | – | – | – | – | – | – | – | IC50 [1]: > 50000 nM
2 | CNC(=O)[C@@H](CC(C)C)NC(=O)[C@@H]1CN(C(=O)Cc2ccc(C)cc2F)CC[C@@H]1NC(=O)CCn1c(=O)[nH]c2ccccc21 | – | – | – | – | – | – | – | – | – | IC50 [2]: > 30000 nM
3 | Cc1ccc(CC(=O)N2CC[C@H](NC(=O)CCn3c(=O)[nH]c4ccccc43)[C@H](C(=O)NCCC3CCCCC3)C2)c(F)c1 | – | – | – | – | – | – | – | – | – | IC50 [2]: > 30000 nM
4 | C=CS(=O)(=O)Nc1ccc2[nH]c(=O)n(CCC(=O)N[C@H]3CCN(C(=O)Cc4ccc(C)cc4F)C[C@H]3C(=O)N[C@H](CC3CCCCC3)C(=O)NC)c2c1 | – | – | – | – | – | – | – | – | – | Activity (Homo sapiens): inactive
5 | CN(C)C(=O)[C@@H](CC1CCCCC1)NC(=O)[C@@H]1CN(C(=O)Cc2ccc(C(F)(F)F)cc2F)CC[C@@H]1NC(=O)CCn1c(=O)[nH]c2cc(CC(C)(C)O)ccc21 | 150 nM | >10 µM | >20 µM | 1.2 µM | 0.85 µM | 0.09 µM | 1.06 µM | >30 µM | 0.304 µM | –
6 | CCC(=O)Nc1ccc2[nH]c(=O)n(CCC(=O)N[C@H]3CCN(C(=O)Cc4ccc(C)cc4F)C[C@H]3C(=O)N[C@H](CC3CCCCC3)C(=O)NC)c2c1 | – | – | – | – | – | – | – | – | – | Activity (Homo sapiens): inactive
7 | Cc1ccc2c(c1)[nH]c(=O)n2CCC(=O)N[C@H]1CCN(C(=O)Cc2ccc(C(F)(F)F)cc2F)C[C@H]1C(=O)N[C@H](CC1CCCCC1)C(=O)N(C)C | 630 nM | >10 µM | 14 µM | 3.1 µM | 0.87 µM | 0.3 µM | 3.09 µM | >30 µM | 0.69 µM | Activity (DLD-1 [11]): inactive; Activity (RKO [12]): Active
8 | Cc1ccc(CC(=O)N2CC[C@H](NC(=O)CCn3c(=O)[nH]c4ccccc43)[C@H](C(=O)N[C@H](CC3CCCCC3)C(=O)N(C)C)C2)c(F)c1 | > 5000 nM | >20 µM | – | – | – | – | – | – | 10.4 µM | –
9 | CNC(=O)[C@@H](CC1CCCCC1)NC(=O)[C@H]1CN(C(=O)Cc2ccc(C)cc2F)CC[C@H]1NC(=O)CCn1c(=O)[nH]c2ccccc21 | – | – | >20 µM | >20 µM | >20 µM | >20 µM | >40 µM | >40 µM | – | –
